Measured values published in patent US11766430B2, “Methods of using a phenoxypropylamine compound to treat pain” (Minerva Neurosciences, Inc., priority 2018, dated 2023).
“Also recorded” adds a separate entry of the source.

Test system: chemotherapy-induced peripheral neuropathic pain in rats
Assay: Paclitaxel-induced peripheral neuropathic pain, paw withdrawal threshold with von Frey filaments, single administration (Example 5)
Type: in vivo, Male Sprague Dawley rats
Conditions: for Paw withdrawal threshold (PWT) compared to vehicle (in words): Day 14; for Paw withdrawal threshold (PWT), Day 14 Avg., Mean: i.p., 2 hours prior to test, Count 12
Description: Assessment of neuropathic pain using von Frey filaments was performed. Rats were administered paclitaxel (2 mg/kg) on four alternate days (days 1, 3, 5 and 7). Baseline and post treatment paw withdrawal thresholds (PWT) were evaluated using von Frey filaments (Semmes-Weinstein filaments, Stoelting, Wood Dale, Ill., USA) of varying stiffness (0.4, 0.7, 1.2, 2.0, 3.6, 5.5, 8.5, 10, 15, 26 g). Animals were placed on a perforated metallic platform and allowed to acclimate to their surroundings for a minimum of 15 minutes before each test session. Each filament was presented perpendicular to the plantar surface with sufficient force to cause slight buckling against the paw, and then held until a positive response is noted (paw sharply withdrawn). As described by Chaplan, S. R. et al. “Qualitative Assessment of Tactile Allodynia in the Rat Paw” Journal of Neuroscience Methods, 53 (1994), 55-63 (“Chaplan”), once the threshold was crossed, the 2 responses straddling the threshold are retrospectively designated as the first 2 responses. Four additional responses were measured to stimuli varied sequentially up or down based on the animal's response. The 6 responses in the immediate vicinity of the threshold were used to calculate the 50% g threshold: 50% g threshold=(10^[Xf+k*d])/10000
Xf is the final filament used (in log units). The parameter k is from the Appendix 1 in Chaplan and was determined by the pattern of the von Frey responses (e.g. OXOXOX where ‘O’ indicates no response and ‘X’ denotes a withdrawal). The parameter d is the difference between stimuli which Chaplan used a constant d=0.224. To accommodate for the use of the 10 g and 26 g filaments, the exact difference between stimuli were used.
Male Sprague Dawley rats (from Envigo, Ind., USA) were used in the study. Animals were received at approximately 250 g and housed 3 per cage upon arrival. All rats were examined, handled, and weighed prior to initiation of the study to assure adequate health and suitability. During the course of the study, 12 h/12 h light/dark cycles was maintained. The room temperature was be maintained between 20 and 23° C. with a relative humidity maintained around 50%. Chow and water was provided ad libitum for the duration of the study. All testing was performed during the animal's light cycle phase. Every effort was made to minimize suffering of animals. Rats with baseline PWT less than 12 g were not included in the study. Rats were balanced by body weight and by their pre-paclitaxel PWT values. ANOVA found no significant differences between the treatment groups.
Paclitaxel was purchased from Biolyse Pharma (Ontario, Canada) and was injected i.p. (2 mg/kg) on four alternate days (day 1, 3, 5 and 7) for a total of 4 injections at a dose volume of 1 mL/kg.
Rats were subsequently balanced and assigned to treatment groups based on post-paclitaxel PWT values. On test day, PWT was assessed two hours post vehicle or MIN-117 injections and one hour after gabapentin administration.
Gabapentin was purchased from Toronto Research Chemicals and was dissolved in saline and administered orally 60 minutes prior to test at a dose volume of 1 mL/kg. MIN-117 (1, 3 and 10 mg/kg), formulated in 0.5% (w/v) hydroxypropylmethylcellulose (HPMC, Sigma-Aldrich), was administered i.p. at a dose volume of 1 mL/kg. MIN-117 was administered 2 hours prior to test.

SMILES: Cc1nnc(-c2cc3c(OC[C@@H](O)CN4CCC(c5ccc(Cl)c(Cl)c5)CC4)cccc3o2)o1.Cl [MIN-117, (2S)-1-(4-(3,4-dichlorophenyl)piperidin-1-yl)-3-((2-(5-methyl-1,3,4-oxadiazol-2-yl)benzofuran-4-yl)oxy)propan-2-ol hydrochloride]
- Paw withdrawal threshold (PWT) compared to vehicle (in words) (1 mg/kg i.p. 2 hours prior to test): did not show a significant increase in PWT
- Paw withdrawal threshold (PWT) compared to vehicle (in words) (3 mg/kg i.p. 2 hours prior to test, hydrochloride, 3 mg/kg): significant increase in PWT; also recorded: significantly reduced neuropathic pain
- Paw withdrawal threshold (PWT) compared to vehicle (in words) (10 mg/kg i.p. 2 hours prior to test, hydrochloride, 10 mg/kg): significant increase in PWT; also recorded: significantly reduced neuropathic pain
- Mean Diff. of Day 14 Avg. PWT, Fisher's PLSD (Paclitaxel + Gabapentin (100 mg/kg), Paclitaxel + MIN-117 (1 mg/kg)): 14.200
- Mean Diff. of Day 14 Avg. PWT, Fisher's PLSD (Paclitaxel + Gabapentin (100 mg/kg), Paclitaxel + MIN-117 (3 mg/kg)): 12.775
- Mean Diff. of Day 14 Avg. PWT, Fisher's PLSD (Paclitaxel + Gabapentin (100 mg/kg), Paclitaxel + MIN-117 (10 mg/kg)): 11.802
- Mean Diff. of Day 14 Avg. PWT, Fisher's PLSD (Paclitaxel + MIN-117 (1 mg/kg), Paclitaxel + MIN-117 (3 mg/kg)): −1.425
- Mean Diff. of Day 14 Avg. PWT, Fisher's PLSD (Paclitaxel + MIN-117 (1 mg/kg), Paclitaxel + MIN-117 (10 mg/kg)): −2.399
- Paw withdrawal threshold (PWT), Day 14 Avg., Mean (Paclitaxel + MIN-117 (1 mg/kg)): 5.433 g
- Paw withdrawal threshold (PWT), Day 14 Avg., Mean (Paclitaxel + MIN-117 (3 mg/kg)): 6.858 g
- Paw withdrawal threshold (PWT), Day 14 Avg., Mean (Paclitaxel + MIN-117 (10 mg/kg)): 7.832 g
- Mean Diff. of Day 14 Avg. PWT, Fisher's PLSD (Paclitaxel + Vehicle, Paclitaxel + MIN-117 (1 mg/kg)): −1.558
- Mean Diff. of Day 14 Avg. PWT, Fisher's PLSD (Paclitaxel + Vehicle, Paclitaxel + MIN-117 (3 mg/kg)): −2.984
- Mean Diff. of Day 14 Avg. PWT, Fisher's PLSD (Paclitaxel + Vehicle, Paclitaxel + MIN-117 (10 mg/kg)): −3.957
